Laboratory results reported in article PMC5104426, “Screening a Phage Display Library for Two Novel OmpU-Binding Peptides with Adhesion Antagonistic Activity against Vibrio mimicus” (PLoS ONE, 2016).
Where “and” joins values, the source holds several entries; their conditions need not be identical. Equal values may be shown once.

Columns and labels:
[1] = test system: V. mimicus 04–14 isolate adhesion to EPC cells; assay: Peptide adhesion inhibition test: V. mimicus adhesion to EPC cells; format: cell-based, Vibrio mimicus; settings: 500 μg/mL peptide mixed with equal volume of V. mimicus 04–14 (2 × 10^7 CFU/mL), 1 h 28°C, then 1 h on EPC cells, crystal violet, 30 cells counted, mean ± SD, triplicate
Description: When EPC cells grown in 24-well plate containing coverslips formed a confluent monolayer, the medium was changed to RPMI-1640 medium without serum and antibiotics for 2 h. Subsequently, 500 μg/mL of each OmpU-binding peptide or unrelated control peptide solution were respectively mixed with an equal volume of V. mimicus isolate 04–14 suspension (2 × 10^7 CFU/mL) and incubated for 1 h at 28°C. The mixture was added to each well, and then the plates were incubated for 1 h at 28°C. After 3 times washes, EPC cells were fixed with cooled methanol for 10 min, stained with crystal violet and examined under a light microscope at a magnification of ×1,000. Thirty cells were randomly selected to count the number of adhering bacterial per slide. Each experiment was performed in triplicate, with each sample being repeated in 3 cell wells.

V. mimicus 04–14 isolate = assay: Protective effects on grass carps challenged with V. mimicus; format: in vivo, Vibrio mimicus; settings: for Mortality rate / Survival rate: n = 10, 7 days; for No. of dead fish post challenge, 2d: n = 10, day 2; for No. of dead fish post challenge, 3d: n = 10, day 3; for No. of dead fish post challenge, 4d: n = 10, day 4; for No. of dead fish post challenge, 5d: n = 10, day 5; for No. of dead fish post challenge, 6d: n = 10, day 6; for No. of dead fish post challenge, 7d: n = 10, day 7; for No. of dead fish: n = 10, total over 7 days; for No. of dead fish post challenge, 1d: n = 10, day 1
Description: Healthy grass carps weighting 50–52 g were purchased from a commercial fish farm in Anhui province of China, and then were maintained in a flow-through water system at a temperature of 25 ± 1°C and fed commercial pellets on a daily basis. After 14 days when grass carps were confirmed to be healthy, the water temperature was increased to 28 ± 1°C slowly, and the experiment began.
The experimental grass carps were randomly divided into 9 groups (named A-I group, n = 10 in each group). Groups A-C were injected intraperitoneally with P1 at a dose of 10 mg/kg/d, 20 mg/kg/d and 30 mg/kg/d, respectively; Groups D-F were given the same dosages of P2, respectively; Group G was given with 30 mg/kg/d of unrelated control peptide. After 3 days of continuous peptides injection, each fish in groups A-G was challenged intraperitoneally with 200 μL PBS containing 6 × 10^6 cells of V.mimicus 04–14 isolate (equal to the minimal lethal dose determined by preliminary test), respectively. Group H (infection control group) was only inoculated with 04–14 isolate at the minimal lethal dose; Group I (negative control group) was only inoculated with 0.65% sterile saline. Survival of the fish was monitored every 12 h for 7 days post-challenge. At the end of the 7 day observation period, all surviving fish were euthanized in a solution of 200 mg/L of MS-222 followed by a blow to the head.
The survival experiment was performed in accordance with the practices reported in recent studies on antibacterial efficacy of peptides in vivo, protective efficacy of vaccine and bacterial virulence. Death was used as an endpoint in these studies (with no indication of use of humane euthanasia). In animal toxicity and efficacy assays of the adhesion antagonistic peptides, we used death as the endpoint as early, reliable and unbiased biomarkers that can be used as indicators of disease severity are lacking. There is difficulty in reliably differentiating fish that will die from those which will recover, despite showing clinical signs precluding use of humane euthanasia. In addition, interpretation of clinical signs can itself be subjective in the absence of quantifiable indicators of disease severity. For these reasons, the ethical committee of Anhui Agricultural University has assessed the possibility of deaths in the animal toxicity and efficacy assays and also allowed probably unavoidable animal deaths.

[2] = 10 mg/kg/d i.p. for 3 days before challenge
[3] = 10 mg/kg/d i.p. for 3 days before i.p. challenge with 6 × 10^6 cells
[4] = 20 mg/kg/d i.p. for 3 days before challenge
[5] = 30 mg/kg/d i.p. for 3 days before challenge

| Sequence | average number of adhesion around each cell [1] | Mortality rate (V. mimicus 04–14 isolate; [2]) [%] | Survival rate (V. mimicus 04–14 isolate; [2]) [%] | No. of dead fish post challenge, 2d (V. mimicus 04–14 isolate; [2]) | No. of dead fish post challenge, 3d (V. mimicus 04–14 isolate; [2]) | No. of dead fish post challenge, 4d (V. mimicus 04–14 isolate; [2]) | No. of dead fish post challenge, 5d (V. mimicus 04–14 isolate; [2]) | No. of dead fish post challenge, 6d (V. mimicus 04–14 isolate; [2]) | No. of dead fish post challenge, 7d (V. mimicus 04–14 isolate; [2]) | No. of dead fish (V. mimicus 04–14 isolate; [2]) | No. of dead fish post challenge, 1d (V. mimicus 04–14 isolate; [3]) | Mortality rate (V. mimicus 04–14 isolate; [4]) [%] | Survival rate (V. mimicus 04–14 isolate; [4]) [%] | No. of dead fish post challenge, 1d (V. mimicus 04–14 isolate; [4]) | No. of dead fish post challenge, 2d (V. mimicus 04–14 isolate; [4]) | No. of dead fish post challenge, 3d (V. mimicus 04–14 isolate; [4]) | No. of dead fish post challenge, 4d (V. mimicus 04–14 isolate; [4]) | No. of dead fish post challenge, 5d (V. mimicus 04–14 isolate; [4]) | No. of dead fish post challenge, 6d (V. mimicus 04–14 isolate; [4]) | No. of dead fish post challenge, 7d (V. mimicus 04–14 isolate; [4]) | further results |
| --- | --- | --- | --- | --- | --- | --- | --- | --- | --- | --- | --- | --- | --- | --- | --- | --- | --- | --- | --- | --- | --- |
| SCTSPHCFMWLP [P2, adhesion antagonistic peptide] | 3.4 ± 0.8 | 80 | 20 | 4 | 3 | 1 | 0 | 0 | 0 | 8 | 0 | 60 | 40 | 0 | 2 | 3 | 1 | 0 | 0 | 0 | No. of dead fish (V. mimicus 04–14 isolate; [4]): 6; Mortality rate (V. mimicus 04–14 isolate; [5]): 40%; Survival rate (V. mimicus 04–14 isolate; [5]): 60%; No. of dead fish post challenge, 1d (V. mimicus 04–14 isolate; [5]): 0; No. of dead fish post challenge, 2d (V. mimicus 04–14 isolate; [5]): 2; No. of dead fish post challenge, 3d (V. mimicus 04–14 isolate; [5]): 2; No. of dead fish post challenge, 4d (V. mimicus 04–14 isolate; [5]): 0; No. of dead fish post challenge, 5d (V. mimicus 04–14 isolate; [5]): 0; No. of dead fish post challenge, 6d (V. mimicus 04–14 isolate; [5]): 0; No. of dead fish post challenge, 7d (V. mimicus 04–14 isolate; [5]): 0; No. of dead fish (V. mimicus 04–14 isolate; [5]): 4 |
| TWTCSDVICTAR [P1, adhesion antagonistic peptide] | 5.1 ± 0.7 and 5.1 ± 0.6 | 90 | 10 | 5 | 2 | 2 | 0 | 0 | 0 | 9 | 0 | 80 | 20 | 0 | 4 | 2 | 2 | 0 | 0 | 0 | No. of dead fish (V. mimicus 04–14 isolate; [4]): 8; Mortality rate (V. mimicus 04–14 isolate; [5]): 60%; Survival rate (V. mimicus 04–14 isolate; [5]): 40%; No. of dead fish post challenge, 1d (V. mimicus 04–14 isolate; [5]): 0; No. of dead fish post challenge, 2d (V. mimicus 04–14 isolate; [5]): 2; No. of dead fish post challenge, 3d (V. mimicus 04–14 isolate; [5]): 3; No. of dead fish post challenge, 4d (V. mimicus 04–14 isolate; [5]): 1; No. of dead fish post challenge, 5d (V. mimicus 04–14 isolate; [5]): 0; No. of dead fish post challenge, 6d (V. mimicus 04–14 isolate; [5]): 0; No. of dead fish post challenge, 7d (V. mimicus 04–14 isolate; [5]): 0; No. of dead fish (V. mimicus 04–14 isolate; [5]): 6 |
